According to US5500807A, “Selection method for pharmacologically active compounds” (The Regents of the University of California, priority 1992, dated 1996):
Values belong to the compound of their own block, whether it stands above or below them.

What was measured:
[1] = biological target: T1, human thyroid hormone receptor (Homo sapiens, UniProt P10828); experiment: Receptor binding to in-vitro translated human thyroid hormone receptor (FIGS. 8-13)
T1 sequence (P10828 1-461): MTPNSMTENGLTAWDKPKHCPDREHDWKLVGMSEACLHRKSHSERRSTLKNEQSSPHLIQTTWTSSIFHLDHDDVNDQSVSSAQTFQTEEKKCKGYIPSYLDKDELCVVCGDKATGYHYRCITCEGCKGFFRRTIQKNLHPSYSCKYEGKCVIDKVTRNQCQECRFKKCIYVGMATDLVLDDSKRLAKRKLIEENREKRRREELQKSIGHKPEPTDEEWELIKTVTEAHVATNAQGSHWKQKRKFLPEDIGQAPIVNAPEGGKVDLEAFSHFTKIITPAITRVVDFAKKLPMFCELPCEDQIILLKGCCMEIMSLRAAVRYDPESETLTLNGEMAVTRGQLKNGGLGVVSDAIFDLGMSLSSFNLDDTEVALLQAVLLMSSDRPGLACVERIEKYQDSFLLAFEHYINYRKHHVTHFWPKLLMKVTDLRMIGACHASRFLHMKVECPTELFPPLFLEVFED
From the text: In FIGS. 8-13, human thyroid hormone receptor was produced by in-vitro translation of RNA coding for the receptor protein. The RNA was synthesized enzymatically using a human thyroid receptor DNA clone as a template.

[2] = tested on: thyroid hormone receptor; conditions: J. Clin. Invest., 83 (1989); cited from earlier work
[3] = cited from earlier work
[4] = tested on: thyroid hormone receptor in nuclei of intact GC cells; format: cell-based, rat; conditions: for competition with labeled T3, in words: intact cells
[5] = tested on: rGH mRNA in GC cells; conditions: 300 pM T3; Northern analysis; FIG. 7a
[6] = nuclear but not mitochondrial or cytosol fractions; cited from earlier work
[7] = cases of clinical hypothyroidism

SMILES: CCCCc1oc2ccccc2c1C(=O)c1cc(I)c(OCCN(CC)CC)c(I)c1 [amiodarone, 2-butyl-3-[3,5-diiodo-4-(β-diethylaminoethoxy)-benzoyl]benzofuran]
thyroid hormone antagonism, in words [2]: behaves as a competitive inhibitor of triiodothyronine (T3)
T4 and T3 serum levels in clinical hypothyroidism [3, 7]: normal or slightly decreased
pituitary thyroid receptor hormone binding [3, 7]: decreased pituitary thyroid receptor hormone binding
thyroid-stimulating hormone (TSH) levels [3, 7]: mildly elevated
thyroid side effects ([3]; chronic administration): both hyper- and hypothyroid-like side effects
effect on peripheral T4 monodeiodination ([3]; in vivo): inhibition of peripheral T4 monodeiodination
serum T4 and T3 levels ([3]; in vivo): changes in the concentrations of serum thyroxine (T4) and triiodothyronine (T3) levels
competition with labeled T3, in words [4]: competed with labeled T3 for binding to the thyroid hormone receptors
effect on induction of rGH mRNA [5]: blocked the induction of rGH mRNA

SMILES: N[C@@H](Cc1cc(I)c(Oc2ccc(O)c(I)c2)c(I)c1)C(=O)O [T3, triiodothyronine]
binding to cellular fractions, in words [6]: high-affinity, low capacity binding sites
competition with labeled T3, in words [4]: competed with labeled T3 for binding to the thyroid hormone receptors

SMILES: N[C@@H](Cc1cc(I)c(Oc2ccc(O)c(I)c2)c(I)c1)C(=O)O [^125 I-T3]
maximum binding capacity ([4]; intact GC cells, normalized to DNA content): about 85 fmol/100 ug DNA

SMILES: N[C@@H](Cc1cc(I)c(Oc2cc(I)c(O)c(I)c2)c(I)c1)C(=O)O [T4, thyroxine]
binding to cellular fractions, in words [6]: high-affinity, low capacity binding sites

Other lines, results leading:

binding to T3 (thyroid hormone) receptor, in words [1]: zero binding
SMILES: CCN(CC)CCOc1c(I)cc(C(C)=O)cc1I

binding to T3 (thyroid hormone) receptor, in words [1]: binds to the T3 receptor
SMILES: CCCCNC(Cc1cc(I)c(Oc2ccc(O)c(I)c2)c(I)c1)C(=O)O (stereo not drawn)

binding to T3 (thyroid hormone) receptor, in words [1]: good binding to T3 receptor
SMILES: CCN(CC)CCOc1c(I)cc(C(=O)c2c(C)oc3ccccc23)cc1I

binding to T3 (thyroid hormone) receptor, in words [1]: binds weakly to the T3 receptor
SMILES: CCCCc1oc2ccccc2c1C(O)c1cc(I)c(OCCN(CC)CC)c(I)c1 (stereo not drawn)

binding to T3 (thyroid hormone) receptor, in words [1]: binds to the T3 receptors
SMILES: COc1ccc(C(=O)n2cc(CNC(Cc3cc(I)c(Oc4ccc(O)c(I)c4)c(I)c3)C(=O)O)c3cc(OC)ccc32)cc1 (stereo not drawn)
